Data taken from PubChem BioAssay (NCI).
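96-well plates; 48 h exposure; 5 concentrations. Endpoints by linear interpolation between flanking doses. Not reached: highest tested concentration assigned. TGI marks complete inhibition of growth.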

How the values were obtained:
Assay in all cases: inhibition of tumour cell growth, NCI panel, 48 h
[1] = system: SW-620 colon
[2] = system: LOX IMVI melanoma
[3] = system: NCI-H460 lung
[4] = system: MALME-3M melanoma
[5] = system: EKVX NSCLC
[6] = system: NCI-H522 lung
[7] = system: KM12 colon
[8] = system: TK-10 renal
[9] = system: MDA-MB-231 breast
[10] = system: MCF7 breast
[11] = system: CAKI-1 renal
[12] = system: MDA-N
[13] = system: SK-OV-3 ovarian
[14] = system: DU-145 prostate
[15] = system: NCI-H226 lung
[16] = system: RPMI-8226 leukemia
[17] = system: SK-MEL-28 melanoma
[18] = system: ACHN renal
[19] = system: UACC-257 melanoma
[20] = system: U251 CNS
[21] = system: HCT-15 colon
[22] = system: OVCAR-8 ovarian
[23] = system: HCC-2998 colon
[24] = system: A549 NSCLC
[25] = system: 786-0 renal
[26] = system: SF-268 CNS
[27] = system: SK-MEL-2 melanoma
[28] = system: HS 578T breast
[29] = system: RXF 393 renal
[30] = system: SNB-75 CNS
[31] = system: M14 melanoma
[32] = system: OVCAR-5 ovarian
[33] = system: OVCAR-3 ovarian
[34] = system: SF-295 CNS
[35] = system: HT29 colon
[36] = system: SK-MEL-5 melanoma
[37] = system: SNB-19 CNS
[38] = system: HCT-116 colon
[39] = system: IGROV1 ovarian
[40] = system: NCI-H23 lung
[41] = system: CCRF-CEM leukemia
[42] = system: HOP-62 NSCLC
[43] = system: SN12C renal
[44] = system: K-562 leukemia
[45] = system: COLO 205 colon
[46] = system: PC-3 prostate
[47] = system: T-47D breast
[48] = system: NCI/ADR-RES ovarian
[49] = system: UACC-62 melanoma
[50] = system: OVCAR-4 ovarian
[51] = system: MDA-MB-435
[52] = system: A498 renal
[53] = system: HL-60(TB) leukemia
[54] = system: MOLT-4 leukemia
[55] = system: UO-31 renal
[56] = system: SF-539 CNS

Question: Which TGI [1] does the source give for Nc1nc(N)c2nc(CNc3ccc(C(=O)NC(CCC(=O)O)C(=O)O)cc3F)cnc2n1 (stereo not drawn) here?
Answer: > 100 µM

Question: And the TGI [2]?
Answer: > 100 µM

Question: And the TGI [3]?
Answer: > 100 µM

Question: And the TGI [4]?
Answer: > 100 µM

Question: And the TGI [5]?
Answer: > 100 µM

Question: And the TGI [6]?
Answer: > 100 µM

Question: What about the TGI [7] of the same compound?
Answer: > 100 µM

Question: And the TGI [8]?
Answer: > 100 µM

Question: What about the TGI [9] of the same compound?
Answer: > 100 µM

Question: And the TGI [10]?
Answer: > 100 µM

Question: And the TGI [11]?
Answer: > 100 µM

Question: What about the TGI [12] of the same compound?
Answer: > 100 µM

Question: What about the TGI [13] of the same compound?
Answer: > 100 µM

Question: What about the TGI [14] of the same compound?
Answer: > 100 µM

Question: What about the TGI [15] of the same compound?
Answer: > 100 µM

Question: And the TGI [16]?
Answer: 67.2 µM

Question: And the TGI [17]?
Answer: > 100 µM

Question: And the TGI [18]?
Answer: > 100 µM

Question: And the TGI [19]?
Answer: > 100 µM

Question: What about the TGI [20] of the same compound?
Answer: > 100 µM

Question: And the TGI [21]?
Answer: > 100 µM

Question: And the TGI [22]?
Answer: > 100 µM

Question: And the TGI [23]?
Answer: > 100 µM

Question: And the TGI [24]?
Answer: > 100 µM

Question: What about the TGI [25] of the same compound?
Answer: > 100 µM

Question: What about the TGI [26] of the same compound?
Answer: > 100 µM

Question: What about the TGI [27] of the same compound?
Answer: > 100 µM

Question: What about the TGI [28] of the same compound?
Answer: > 100 µM

Question: And the TGI [29]?
Answer: > 100 µM

Question: And the TGI [30]?
Answer: > 100 µM

Question: What about the TGI [31] of the same compound?
Answer: > 100 µM

Question: And the TGI [32]?
Answer: > 100 µM

Question: What about the TGI [33] of the same compound?
Answer: > 100 µM

Question: What about the TGI [34] of the same compound?
Answer: > 100 µM

Question: What about the TGI [35] of the same compound?
Answer: > 100 µM

Question: What about the TGI [36] of the same compound?
Answer: > 100 µM

Question: What about the TGI [37] of the same compound?
Answer: > 100 µM

Question: What about the TGI [38] of the same compound?
Answer: > 100 µM

Question: And the TGI [39]?
Answer: > 100 µM

Question: And the TGI [40]?
Answer: > 100 µM

Question: And the TGI [41]?
Answer: > 100 µM

Question: What about the TGI [42] of the same compound?
Answer: > 100 µM

Question: What about the TGI [43] of the same compound?
Answer: > 100 µM

Question: And the TGI [44]?
Answer: > 76.7 µM

Question: What about the TGI [45] of the same compound?
Answer: > 100 µM

Question: And the TGI [46]?
Answer: > 100 µM

Question: What about the TGI [47] of the same compound?
Answer: > 100 µM

Question: What about the TGI [48] of the same compound?
Answer: > 100 µM

Question: What about the TGI [49] of the same compound?
Answer: > 100 µM

Question: What about the TGI [50] of the same compound?
Answer: > 100 µM

Question: What about the TGI [51] of the same compound?
Answer: > 100 µM

Question: Which results are given for Oc1ccc[n+](Cc2ccccc2)c1?
Answer: TGI [2]: > 100 µM; TGI [3]: > 100 µM; TGI [52]: > 100 µM; TGI [53]: > 100 µM; TGI [4]: > 100 µM; TGI [6]: > 100 µM; TGI [54]: > 100 µM; TGI [7]: > 100 µM; TGI [8]: > 100 µM; TGI [9]: > 100 µM; TGI [10]: > 100 µM; TGI [11]: > 100 µM; TGI [12]: > 100 µM; TGI [55]: > 100 µM; TGI [13]: > 100 µM; TGI [14]: > 100 µM; TGI [15]: > 100 µM; TGI [16]: > 100 µM; TGI [17]: > 100 µM; TGI [18]: > 100 µM; TGI [19]: > 100 µM; TGI [20]: > 100 µM; TGI [21]: > 100 µM; TGI [22]: > 100 µM; TGI [23]: > 100 µM; TGI [24]: > 100 µM; TGI [25]: > 100 µM; TGI [26]: > 100 µM; TGI [27]: > 100 µM; TGI [28]: > 100 µM; TGI [29]: > 100 µM; TGI [30]: > 100 µM; TGI [31]: > 100 µM; TGI [32]: > 100 µM; TGI [33]: > 100 µM; TGI [56]: > 100 µM; TGI [34]: > 100 µM; TGI [35]: > 100 µM; TGI [36]: > 100 µM; TGI [37]: > 100 µM; TGI [38]: > 100 µM; TGI [40]: > 100 µM; TGI [41]: > 100 µM; TGI [42]: > 100 µM; TGI [43]: > 100 µM; TGI [44]: > 100 µM; TGI [45]: > 100 µM; TGI [46]: > 100 µM; TGI [47]: > 100 µM; TGI [48]: > 100 µM; TGI [49]: > 100 µM; TGI [51]: > 100 µM
